According to PubChem BioAssay AID328 (DTP/NCI, 2004):
“And” between values parts separate entries of the source, which are not always exact repeats. Equal values may be shown once. Toxic doses and inconclusive results are not listed.

Test system: BDF1 mice, P388 leukemia ip, median survival T/C
Assay: NCI In Vivo Anticancer Drug Screen. Data for tumor model P388 Leukemia (intraperitoneal) in B6D2F1 (BDF1) mice
Details: endpoint: median survival time, higher = longer survival
How it was run: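 Steps: implant the tumour, treat one group with compound and another with vehicle, record survival, then divide treated by control.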

[1] = dose: 25.0 mg/kg/injection, schedule: Q01DX009 (ip), vehicle: saline with Tween-80
[2] = dose: 50.0 mg/kg/injection, schedule: Q01DX009 (ip), vehicle: saline with Tween-80
[3] = dose: 100.0 mg/kg/injection, schedule: Q01DX009 (ip), vehicle: saline with Tween-80
[4] = dose: 200.0 mg/kg/injection, schedule: Q01DX009 (ip), vehicle: saline with Tween-80
[5] = dose: 100.0 mg/kg/injection, schedule: Q01DX009 (ip), vehicle: Klucel (hydroxypropylcellulose) (HPC)
[6] = dose: 200.0 mg/kg/injection, schedule: Q01DX009 (ip), vehicle: Klucel (hydroxypropylcellulose) (HPC)
[7] = dose: 400.0 mg/kg/injection, schedule: Q01DX009 (ip), vehicle: Klucel (hydroxypropylcellulose) (HPC)
[8] = dose: 100.0 mg/kg/injection, schedule: Q04DX003 (ip), vehicle: Klucel (hydroxypropylcellulose) (HPC)
[9] = dose: 200.0 mg/kg/injection, schedule: Q04DX003 (ip), vehicle: Klucel (hydroxypropylcellulose) (HPC)
[10] = dose: 400.0 mg/kg/injection, schedule: Q04DX003 (ip), vehicle: Klucel (hydroxypropylcellulose) (HPC)
[11] = dose: 6.25 mg/kg/injection, schedule: Q01DX009 (ip), vehicle: water
[12] = dose: 12.5 mg/kg/injection, schedule: Q01DX009 (ip), vehicle: water

O=S(=O)(F)c1cc(C[P+](c2ccccc2)(c2ccccc2)c2ccccc2)ccc1Cl
T/C (dose: 2.0 mg/kg/injection, schedule: Q01DX009 (ip), vehicle: saline with Tween-80): 109 % of control | T/C (dose: 8.0 mg/kg/injection, schedule: Q01DX009 (ip), vehicle: Klucel (hydroxypropylcellulose) (HPC)): 118 % of control | T/C (dose: 8.0 mg/kg/injection, schedule: Q01DX009 (ip), vehicle: saline + alcohol): 123 % of control | T/C (dose: 12.0 mg/kg/injection, schedule: Q01DX009 (ip), vehicle: saline + alcohol): 115 % of control | T/C (dose: 18.0 mg/kg/injection, schedule: Q01DX009 (ip), vehicle: saline + alcohol): 123 % of control | T/C [1]: 110 % of control

CCCCN(CCCC)CCNc1ccc(Cl)c2oc3cc(C)ccc3c(=O)c12
T/C [2]: 100 % of control | T/C [3]: 104 % of control | T/C (dose: 100.0 mg/kg/injection, schedule: Q04DX003 (ip), vehicle: saline with Tween-80): 100 % of control | T/C [4]: 104 % of control | T/C (dose: 200.0 mg/kg/injection, schedule: Q04DX003 (ip), vehicle: saline with Tween-80): 100 % of control

O=P(NC1CCCC1)(N1CC1)N1CC1
T/C (dose: 1.56 mg/kg/injection, schedule: Q01DX009 (ip), vehicle: saline): 116 % of control | T/C (dose: 6.25 mg/kg/injection, schedule: Q01DX009 (ip), vehicle: saline): 187 % of control and 220 % of control | T/C (dose: 12.5 mg/kg/injection, schedule: Q01DX009 (ip), vehicle: saline): 91 % of control and 104 % of control

CN(C)/N=N/c1nc[nH]c1C(N)=O
T/C (dose: 25.0 mg/kg/injection, schedule: Q01DX010 (ip), vehicle: saline): 116 % of control | T/C (dose: 50.0 mg/kg/injection, schedule: Q01DX009 (ip), vehicle: Klucel (hydroxypropylcellulose) (HPC)): 100 % of control and 108 % of control and 123 % of control | T/C (dose: 50.0 mg/kg/injection, schedule: Q01DX010 (ip), vehicle: saline): 100 % of control | T/C [5]: 92 % of control and 97 % of control and 100 % of control | T/C [6]: 100 % of control (2×) and 115 % of control | T/C (dose: 208.0 mg/kg/injection, schedule: Q01DX001 (ip), vehicle: carboxymethylcellulose (CMC)): 109 % of control | T/C (dose: 275.0 mg/kg/injection, schedule: Q01DX001 (ip), vehicle: carboxymethylcellulose (CMC)): 110 % of control and 116 % of control | T/C [7]: 115 % of control and 122 % of control and 123 % of control | T/C (dose: 418.0 mg/kg/injection, schedule: Q01DX001 (ip), vehicle: carboxymethylcellulose (CMC)): 119 % of control | T/C (dose: 775.0 mg/kg/injection, schedule: Q01DX001 (ip), vehicle: carboxymethylcellulose (CMC)): 158 % of control

O=NN(CCCl)C(=O)NC1CCC(=O)NC1=O (centres undefined)
T/C (dose: 3.13 mg/kg/injection, schedule: Q04DX003 (ip), vehicle: saline with Tween-80): 272 % of control | T/C (dose: 4.0 mg/kg/injection, schedule: Q04DX003 (ip), vehicle: saline with Tween-80): 230 % of control | T/C (dose: 6.0 mg/kg/injection, schedule: Q04DX003 (ip), vehicle: saline with Tween-80): 230 % of control | T/C (dose: 6.25 mg/kg/injection, schedule: Q04DX003 (ip), vehicle: saline with Tween-80): 272 % of control | T/C (dose: 9.0 mg/kg/injection, schedule: Q04DX003 (ip), vehicle: gum acacia): 250 % of control | T/C (dose: 9.0 mg/kg/injection, schedule: Q04DX003 (ip), vehicle: saline with Tween-80): 230 % of control | T/C (dose: 12.5 mg/kg/injection, schedule: Q04DX003 (ip), vehicle: saline with Tween-80): 104 % of control | T/C (dose: 20.0 mg/kg/injection, schedule: Q04DX003 (ip), vehicle: gum acacia): 112 % of control

CC1SC(N)=NC1=O (centres undefined)
T/C [5]: 100 % of control | T/C [8]: 109 % of control | T/C [6]: 109 % of control | T/C [9]: 86 % of control | T/C [7]: 100 % of control | T/C [10]: 109 % of control

COc1cccc2c1C(=O)c1c(O)c3c(c(O)c1C2=O)C[C@@](O)(/C(CO)=N/NC(=O)c1ccccc1)C[C@@H]3OC1CC(N)C(O)C(C)O1 (some centres undefined)
T/C (dose: 3.12 mg/kg/injection, schedule: Q01DX009 (ip), vehicle: water): 180 % of control | T/C [11]: 252 % of control | T/C [12]: 267 % of control

N/C(=N\Cl)C(Cl)(Cl)Cl
T/C (dose: 12.5 mg/kg/injection, schedule: Q04DX003 (ip), vehicle: saline): 109 % of control | T/C (dose: 25.0 mg/kg/injection, schedule: Q01DX009 (ip), vehicle: saline): 150 % of control | T/C (dose: 25.0 mg/kg/injection, schedule: Q04DX003 (ip), vehicle: saline): 118 % of control | T/C (dose: 33.0 mg/kg/injection, schedule: Q04DX003 (ip), vehicle: saline): 118 % of control | T/C (dose: 37.5 mg/kg/injection, schedule: Q01DX009 (ip), vehicle: saline): 118 % of control | T/C (dose: 50.0 mg/kg/injection, schedule: Q04DX003 (ip), vehicle: saline): 118 % of control | T/C (dose: 75.0 mg/kg/injection, schedule: Q04DX003 (ip), vehicle: saline): 118 % of control

O=C(O)Cc1ccc(N=Nc2c(O)c(C(=O)O)cc3ccccc23)cc1
T/C [8]: 111 % of control | T/C [9]: 111 % of control | T/C [10]: 100 % of control

Nc1c(Br)cc(Br)c(C(=O)O)c1Br
T/C (dose: 50.0 mg/kg/injection, schedule: Q04DX003 (ip), vehicle: Klucel (hydroxypropylcellulose) (HPC)): 100 % of control | T/C [8]: 100 % of control | T/C [9]: 95 % of control

O=C(Nc1ccccc1F)C12CC3CC(CC(C3)C1)C2
T/C [2]: 92 % of control | T/C [3]: 96 % of control | T/C [4]: 96 % of control

CN(C)c1ccc(C=Nc2ccc(/C=C\c3ccnc4ccccc34)cc2)cc1
T/C [2]: 107 % of control | T/C [3]: 117 % of control | T/C [4]: 100 % of control

CC(C)(C)/C([O-])=N/[N+](C)(C)Cc1ccccc1
T/C (dose: 100.0 mg/kg/injection, schedule: Q01DX001 (ip), vehicle: saline): 109 % of control | T/C (dose: 200.0 mg/kg/injection, schedule: Q01DX001 (ip), vehicle: saline): 104 % of control | T/C (dose: 400.0 mg/kg/injection, schedule: Q01DX001 (ip), vehicle: saline): 104 % of control

O=C(C=C(C(F)(F)F)C(F)(F)F)c1cccc(Cl)c1
T/C (dose: 6.25 mg/kg/injection, schedule: Q01DX009 (ip), vehicle: saline with Tween-80): 122 % of control | T/C (dose: 12.5 mg/kg/injection, schedule: Q01DX009 (ip), vehicle: saline with Tween-80): 100 % of control

CS(=O)(=O)OCCN(CCOS(C)(=O)=O)c1cccc(C(F)(F)F)c1
T/C (dose: 33.0 mg/kg/injection, schedule: Q04DX003 (ip), vehicle: saline with Tween-80): 155 % of control and 168 % of control | T/C (dose: 50.0 mg/kg/injection, schedule: Q04DX003 (ip), vehicle: saline with Tween-80): 170 % of control and 190 % of control | T/C (dose: 75.0 mg/kg/injection, schedule: Q04DX003 (ip), vehicle: saline with Tween-80): 236 % of control and 190 % of control

N#Cc1ccc(CC(O)c2ccc(Cl)cc2)cc1 (centres undefined)
T/C [2]: 108 % of control | T/C [3]: 89 % of control | T/C [4]: 96 % of control

O=C(CCC(=O)c1cccc([N+](=O)[O-])c1)NNc1ccc([N+](=O)[O-])cc1[N+](=O)[O-]
T/C [3]: 104 % of control | T/C [4]: 90 % of control | T/C (dose: 400.0 mg/kg/injection, schedule: Q01DX009 (ip), vehicle: saline with Tween-80): 95 % of control

CCOC(=O)NCCCNC(=O)OCC
T/C (dose: 100.0 mg/kg/injection, schedule: Q04DX003 (ip), vehicle: saline): 115 % of control | T/C (dose: 200.0 mg/kg/injection, schedule: Q04DX003 (ip), vehicle: saline): 115 % of control | T/C (dose: 400.0 mg/kg/injection, schedule: Q04DX003 (ip), vehicle: saline): 105 % of control

NC(=S)N/N=C/C(=N\NC(N)=S)C(O)C(O)C(O)CO (centres undefined)
T/C [1]: 100 % of control | T/C [2]: 95 % of control | T/C [3]: 100 % of control | T/C (dose: 100.0 mg/kg/injection, schedule: Q04DX003 (ip), vehicle: saline sonified): 100 % of control

COC(=O)C(Cc1cnc2nc(N)nc(N)c2n1)C(=O)OC
T/C (dose: 1.56 mg/kg/injection, schedule: Q01DX009 (ip), vehicle: water): 100 % of control | T/C (dose: 3.13 mg/kg/injection, schedule: Q01DX009 (ip), vehicle: water): 90 % of control | T/C [11]: 100 % of control | T/C [12]: 100 % of control | T/C (dose: 25.0 mg/kg/injection, schedule: Q01DX009 (ip), vehicle: water): 111 % of control

COCC(N)=O
T/C (dose: 100.0 mg/kg/injection, schedule: Q01DX009 (ip), vehicle: saline): 106 % of control | T/C (dose: 200.0 mg/kg/injection, schedule: Q01DX009 (ip), vehicle: saline): 97 % of control | T/C (dose: 400.0 mg/kg/injection, schedule: Q01DX009 (ip), vehicle: saline): 113 % of control
